Columns and labels:
[1] = target: T1, human nicotinic acetylcholine receptor subtype α4β2 (Homo sapiens, UniProt P17787+P43681); assay: FLIPR nAChR α4β2 positive allosteric modulator activity; format: cell-based; settings: HEK-293 cells stably expressing hα4β2; for Efficacy Response relative to Nicotine (%): maximal positively modulated response relative to maximal nicotine response (100 μM); for EC50: positive modulation of response to sub-maximal nicotine (EC20-30), peak values
T1 construct: expressed in transfected cells
T1 sequence (P43681 29-627 limits assumed): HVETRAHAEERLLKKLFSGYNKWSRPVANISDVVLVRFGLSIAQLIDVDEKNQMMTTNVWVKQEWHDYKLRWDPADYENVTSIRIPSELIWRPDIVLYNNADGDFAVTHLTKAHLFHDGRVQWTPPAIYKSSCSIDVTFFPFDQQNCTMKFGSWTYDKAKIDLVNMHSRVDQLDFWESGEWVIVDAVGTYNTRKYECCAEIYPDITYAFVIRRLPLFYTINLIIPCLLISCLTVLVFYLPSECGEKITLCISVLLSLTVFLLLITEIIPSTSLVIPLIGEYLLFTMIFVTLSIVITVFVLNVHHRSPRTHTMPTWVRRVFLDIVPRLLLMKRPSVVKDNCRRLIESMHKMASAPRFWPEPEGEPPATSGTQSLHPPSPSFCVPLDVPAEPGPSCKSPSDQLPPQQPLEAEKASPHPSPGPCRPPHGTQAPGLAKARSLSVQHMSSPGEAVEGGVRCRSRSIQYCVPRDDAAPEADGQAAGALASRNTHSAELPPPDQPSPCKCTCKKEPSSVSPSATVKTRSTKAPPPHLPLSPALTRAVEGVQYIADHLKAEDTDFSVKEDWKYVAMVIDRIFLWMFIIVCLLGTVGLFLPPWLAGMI
T1 sequence (P17787 26-502): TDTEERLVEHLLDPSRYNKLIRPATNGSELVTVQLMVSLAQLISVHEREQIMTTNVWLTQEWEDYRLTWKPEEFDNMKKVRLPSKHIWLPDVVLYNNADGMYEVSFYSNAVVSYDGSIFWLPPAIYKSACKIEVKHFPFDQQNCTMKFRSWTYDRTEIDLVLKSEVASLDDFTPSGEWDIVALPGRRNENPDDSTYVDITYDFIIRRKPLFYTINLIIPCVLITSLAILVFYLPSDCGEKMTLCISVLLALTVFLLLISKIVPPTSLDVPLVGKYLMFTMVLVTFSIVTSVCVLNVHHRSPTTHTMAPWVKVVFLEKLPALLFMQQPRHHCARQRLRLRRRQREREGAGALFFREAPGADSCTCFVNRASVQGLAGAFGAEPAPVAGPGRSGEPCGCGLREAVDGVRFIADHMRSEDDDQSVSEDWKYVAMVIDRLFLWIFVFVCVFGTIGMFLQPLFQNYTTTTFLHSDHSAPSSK
Protocol: Characterization of hα4β2 Positive Allosteric Modulators Using FLIPR
The ability is determined relative to a maximal nicotine response (100 μM). The activity is determined as a fluorescence-based assay using a Fluorometric Imaging Plate Reader (FLIPR) as described below in more detail.
Full concentration/response curves are generated and EC50 values are calculated based on peak values. EC50 values (Effective Concentration) represent the concentration of the test substance, at which the nicotine-induced EC20-30 response is positively modulated such that the size of the response equals 50% of the maximal response. The maximal positively modulated response (efficacy) is determined relative to the reference (nicotine) response.

Row | SMILES | melting point [°C] | Efficacy Response relative to Nicotine (%) [1] [%] | EC50 [1] [nM]
1 | N#Cc1cccc(-c2nnc(-c3cccc(C#N)c3)s2)c1 [Compound 8.2, 3-(5-{3-Cyano-phenyl}-[1,3,4]thiadiazol-2-yl)-benzonitrile] | 217 to 223 |  | 
2 | O=[N+]([O-])c1ccc(-c2nnc(-c3cccnc3)o2)o1 [Compound 7.2, 3-(5-{5-Nitro-furan-2-yl}-[1,3,4]oxadiazol-2-yl)-pyridine] | 165 to 168 |  | 
3 | N#Cc1cccc(-c2nnc(-c3cccnc3)o2)c1 [Compound 7.1, 3-(5-Pyridine-3-yl-[1,3,4]oxadiazol-2-yl)-benzonitrile] |  | 133 | 520
4 | N#Cc1ccc(-c2nnc(-c3cccnc3)o2)s1 [Compound 7.6] |  | 153 | 980

— US20100029685A1 (NeuroSearch A/S, priority 2006, published 2010)
